Measurements published in US4707481A, “Pyridazinones, their preparation and use, and bronchospasmolytic medicaments containing pyridazinones” (BYK Gulden Lomberg Chemische Fabrik GmbH, priority 1983, dated 1987).
Read-outs that look alike come from different tables or passages of the source.

Key:
[1] = system: right ventricle of guinea pigs; assay: heart function dP/dtmax, right ventricle of anesthetized guinea pigs; format: in vivo, guinea pig
Protocol: The effect of the substances on the contractility of the heart of guinea pigs is tested on animals (.male., 400 to 1000 g) under urethane anesthesia. The change in pressure in the right ventricle of the heart is measured with a tip catheter introduced through the right jugular vein and the maximum rate of pressure rise (dP/dtmax) is determined from this. The heart rate is derived from the pressure waves. […] The test substances were administered intravenously. 5-7 animals were used for each measurement, and the arithmetic mean was calculated from the results.

[2] = system: guinea pig hearts isolated and perfused by the Langendorff method; assay: left-ventricular pressure and heart rate in isolated perfused Langendorff hearts; conditions: for Emax: Cavia porcellus; for EC20 left-ventricular pressure: dose which leads to a 20% increase in left ventricular pressure
Excerpt: After the animals have been sacrificed by a blow to the neck and exsanguination through the carotid arteries, the thoracic cavity is opened, and the aorta is exposed and looped up with a thread. A cannula, which is attached by tubing to the apparatus from which the nutrient solution slowly drops, is introduced in the direction of the heart and the heart is, quickly after removal from the thorax, connected to the perfusion apparatus. A balloon probe, connected to a Statham pressure sensor, is advanced through a cut through the left atrium into the left ventricle, and is provided with an initial pressure of 40 mm Hg. […] The nutrient solution flowing freely from the coronary sinus into the right atrium is measured with a flow […]) and, together with the change in the left-ventricular pressure and the heart rate determined from this, is recorded on a Watanabe recorder. The substances are administered in a volume of 0.1 ml of nutrient solution, in the dosage indicated in Tab.

[3] = system: left ventricles of cats; assay: heart function dP/dtmax, left ventricle of anesthetized cats; format: in vivo, cat; conditions: for increase in the heart rate or end-diastolic ventricular pressure / positive inotropic effects (increase in dP/dtmax) compared with comparison compounds: result in words
Protocol: The effect of the substances on the contractility of the heart in cats was tested on animals (.male., .female., 3.2 to 5.2 kg) under anesthesia with chloralose/urethane. The change in pressure in the left ventricle of the heart was measured with a tip catheter introduced through the right carotid artery, the R peak in the ECG (bipolar chest lead) initiating a signal to record the end-diastolic pressure; in addition, the maximum rate of pressure rise (dP/dtmax) was determined from the change in pressure. The heart rate was derived from the pressure waves. The test substances were administered intravenously. 2-6 animals were used per measurement, and the arithmetic mean was calculated from the results.

[4] = system: chain of tracheal rings of guinea pigs; assay: relaxing action on chain of tracheal rings in vitro (bronchospasmolytic action); design: species or system guinea pig; conditions: for EC50: Cavia porcellus, Column A, negative logarithm of EC50 in mol/l, 50% of maximum relaxation by (-)isoprenaline, read-out: -lg[EC50] trachea (converted); for [EC40 pot.] left atrium / [EC50] trachea: Column C, measure of organ-selective activity; for [EC50] theophylline / [EC50] substance: Column D, trachea
[5] = system: electrically stimulated left atrium of rats; assay: positive inotropic action on electrically stimulated left atrium in vitro; design: species or system rat; conditions: for [EC40 pot.] theophylline / [EC40 pot.] substance: Column E, left atrium; for EC40: Rattus norvegicus, Column B, negative logarithm of EC40pot in mol/l, 40% increase in contraction force, read-out: -lg[EC40 pot.] left atrium (converted)
Protocol: The positive inotropic action was tested in vitro on the electrically stimulated left atrium of rats (l.a.).
The positive inotropic action of the compounds was tested in vitro on the electrically stimulated left atrium of rats.
Isometric contractions (HSE force sensor K-30; Watanabe recorder, Linear Corder Mark 5) of isolated, left atria from rats (.male., 250-300 g) in an organ bath (10 ml, Tyrode nutrient solution, 31° C., gassing with carbogen, initial tension of the organs 0.25 g) under electrical stimulation (HSE stimulator, 7 V, 3 ms, 2 Hz) were recorded. […] The particular increase in the contraction force is expressed in % of the starting value before administration of the substance. The concentration of the test substance which potentiates the contraction force of the atrium by 40% compared with the starting value [EC40pot. mol/l], expressed by the negative logarithm of the [EC40pot mol/l]: -lg[EC40pot ] serves as a measure of the cardiotonic activity.

[6] = system: acetylcholine-induced bronchospasm; assay: protective effect against acetylcholine-induced bronchospasm in conscious guinea pigs; format: in vivo, guinea pig
Protocol: The figure in parentheses indicates the number out of 10 animals in which the latency period more than tripled.
The latency period is to be understood to be the time from the start of acetylcholine-atomization until clear signs of asthma appeared.
The time from the start of atomization to the onset of clear respiratory exertion (in certain circumstances, hypoxic convulsion in the lateral position) is measured, and is denoted the latency period.
The test substance is administered orally by gavage (standard dose 100 μmol/kg, volume 1 ml of 4% strength methocel suspension in 0.9% strength sodium chloride solution/kg). […] Prolongation of the latency period to at least twice its length is regarded as a protective effect.

[7] = 0.3 μmol/kg i.v., 0-10 min (Maximum)
[8] = 1 μmol/kg i.v., 0-10 min (Maximum)
[9] = 3 μmol/kg i.v., 0-10 min (Maximum)
[10] = after 1000 nMol, read-out: Emax left-ventricular pressure
[11] = at Emax, 1000 nMol, read-out: Percentage increase in heart rate at Emax

Nc1cc(-c2ccncc2)c[nH]c1=O [Amrinone, amrinone, reference compound]
Percentage change in dP/dtmax [1, 7]: 33% | Percentage change in dP/dtmax ([1]; 0.3 μmol/kg i.v., 10 min): 8% | Percentage change in dP/dtmax ([1]; 0.3 μmol/kg i.v., 30 min): 13% | Percentage change in dP/dtmax [1, 8]: 40% | Percentage change in dP/dtmax ([1]; 1 μmol/kg i.v., 10 min): 21% | Percentage change in dP/dtmax ([1]; 1 μmol/kg i.v., 30 min): 15% | Percentage change in dP/dtmax [1, 9]: 66% | Percentage change in dP/dtmax ([1]; 3 μmol/kg i.v., 10 min): 13% | Percentage change in dP/dtmax ([1]; 3 μmol/kg i.v., 30 min): 20% | Percentage change in dP/dtmax ([1]; 10 μmol/kg i.v., 0-10 min (Maximum)): 101% | Percentage change in dP/dtmax ([1]; 10 μmol/kg i.v., 10 min): 39% | Percentage change in dP/dtmax ([1]; 10 μmol/kg i.v., 30 min): 29% | Percentage change in dP/dtmax ([1]; 30 μmol/kg i.v., 0-10 min (Maximum)): 141% | Percentage change in dP/dtmax ([1]; 30 μmol/kg i.v., 10 min): 78% | Percentage change in dP/dtmax ([1]; 30 μmol/kg i.v., 30 min): 69% | Emax ([2]; after 3000 nMol, read-out: Emax left-ventricular pressure): 35% | Emax ([2]; at Emax, 3000 nMol, read-out: Percentage increase in heart rate at Emax): 8% | Percentage increase in heart rate at EC20 [2]: 7% | EC20 left-ventricular pressure [2]: 1410 nmol | Percentage change in dP/dtmax ([3]; 1 μmol/kg i.v., 3 min): 17% | Percentage change in dP/dtmax ([3]; 1 μmol/kg i.v., 10 min): 6% | Percentage change in dP/dtmax ([3]; 1 μmol/kg i.v., 30 min): 7% | Percentage change in dP/dtmax ([3]; 1 μmol/kg i.v., 60 min): 23% | Percentage change in dP/dtmax ([3]; 3 μmol/kg i.v., 3 min): 52% | Percentage change in dP/dtmax ([3]; 3 μmol/kg i.v., 10 min): 42% | Percentage change in dP/dtmax ([3]; 3 μmol/kg i.v., 30 min): 40% | Percentage change in dP/dtmax ([3]; 3 μmol/kg i.v., 60 min): 43% | Percentage change in dP/dtmax ([3]; 10 μmol/kg i.v., 3 min): 70% | Percentage change in dP/dtmax ([3]; 10 μmol/kg i.v., 10 min): 67% | Percentage change in dP/dtmax ([3]; 10 μmol/kg i.v., 30 min): 59% | Percentage change in dP/dtmax ([3]; 10 μmol/kg i.v., 60 min): 55%

CCOc1ccc(-c2ccc(=O)[nH]n2)cc1OC [Serial No. 4, 6-(4-ethoxy-3-methoxyphenyl)-3[2H]pyridazinone]
EC50 [4]: 1.32 µM | [EC40 pot.] left atrium / [EC50] trachea [4]: 2.9 | [EC50] theophylline / [EC50] substance [4]: 102 | Percentage change in dP/dtmax [1, 7]: 39% | Percentage change in dP/dtmax ([1]; 0.3 μmol/kg i.v., 10 min): 12% | Percentage change in dP/dtmax ([1]; 0.3 μmol/kg i.v., 30 min): 23% | Percentage change in dP/dtmax [1, 8]: 140% | Percentage change in dP/dtmax ([1]; 1 μmol/kg i.v., 10 min): 26% | Percentage change in dP/dtmax ([1]; 1 μmol/kg i.v., 30 min): 56% | Percentage change in dP/dtmax [1, 9]: 95% | Percentage change in dP/dtmax ([1]; 3 μmol/kg i.v., 10 min): 66% | Percentage change in dP/dtmax ([1]; 3 μmol/kg i.v., 30 min): 59% | [EC40 pot.] theophylline / [EC40 pot.] substance [5]: 109 | EC40 [5]: 3.8 µM | Emax ([2]; after 300 nMol, read-out: Emax left-ventricular pressure): 58% | Emax ([2]; at Emax, 300 nMol, read-out: Percentage increase in heart rate at Emax): 27% | Percentage increase in heart rate at EC20 [2]: 6% | EC20 left-ventricular pressure [2]: 22 nmol

C=CCOc1ccc(-c2ccc(=O)[nH]n2)cc1OC [Serial No. 5, 6-(4-allyloxy-3-methoxyphenyl)-3[2H]pyridazinone]
EC50 [4]: 1.51 µM | [EC40 pot.] left atrium / [EC50] trachea [4]: 4.4 | [EC50] theophylline / [EC50] substance [4]: 85.2 | [EC40 pot.] theophylline / [EC40 pot.] substance [5]: 63.1 | EC40 [5]: 6.61 µM | Emax [2, 10]: 185% | Emax [2, 11]: 9% | Percentage increase in heart rate at EC20 [2]: 3% | EC20 left-ventricular pressure [2]: 14 nmol | Percentage change in dP/dtmax ([3]; 0.3 μmol/kg i.v., 3 min): 27% | Percentage change in dP/dtmax ([3]; 0.3 μmol/kg i.v., 10 min): 12% | Percentage change in dP/dtmax ([3]; 0.3 μmol/kg i.v., 30 min): 11% | Percentage change in dP/dtmax ([3]; 0.3 μmol/kg i.v., 60 min): 13% | Percentage change in dP/dtmax ([3]; 1 μmol/kg i.v., 3 min): 64% | Percentage change in dP/dtmax ([3]; 1 μmol/kg i.v., 10 min): 25% | Percentage change in dP/dtmax ([3]; 1 μmol/kg i.v., 30 min): 15% | Percentage change in dP/dtmax ([3]; 1 μmol/kg i.v., 60 min): 20% | increase in the heart rate or end-diastolic ventricular pressure [3]: without leading to any considerable increase in the heart rate or end-diastolic ventricular pressure | positive inotropic effects (increase in dP/dtmax) compared with comparison compounds [3]: stronger positive inotropic effects

CCC(C)Oc1ccc(-c2ccc(=O)[nH]n2)cc1OC (stereo not drawn) [Serial No. 7, 6-(4-sec.-butoxy-3-methoxyphenyl)-3[2H]pyridazinone]
EC50 [4]: 1.32 µM | [EC40 pot.] left atrium / [EC50] trachea [4]: 2.6 | [EC50] theophylline / [EC50] substance [4]: 102 | [EC40 pot.] theophylline / [EC40 pot.] substance [5]: 120 | EC40 [5]: 3.47 µM | Emax [2, 10]: 86% | Emax [2, 11]: 23% | Percentage increase in heart rate at EC20 [2]: 3% | EC20 left-ventricular pressure [2]: 13 nmol | Percentage change in dP/dtmax ([3]; 0.3 μmol/kg i.v., 3 min): 36% | Percentage change in dP/dtmax ([3]; 0.3 μmol/kg i.v., 10 min): 4% | Percentage change in dP/dtmax ([3]; 0.3 μmol/kg i.v., 30 min): 1% | Percentage change in dP/dtmax ([3]; 0.3 μmol/kg i.v., 60 min): 2% | Percentage change in dP/dtmax ([3]; 1 μmol/kg i.v., 3 min): 90% | Percentage change in dP/dtmax ([3]; 1 μmol/kg i.v., 10 min): 25% | Percentage change in dP/dtmax ([3]; 1 μmol/kg i.v., 30 min): 11% | Percentage change in dP/dtmax ([3]; 1 μmol/kg i.v., 60 min): 11% | increase in the heart rate or end-diastolic ventricular pressure [3]: without leading to any considerable increase in the heart rate or end-diastolic ventricular pressure | positive inotropic effects (increase in dP/dtmax) compared with comparison compounds [3]: stronger positive inotropic effects

CCCOc1ccc(-c2ccc(=S)[nH]n2)cc1OC [Serial No. 13, 6-(3-methoxy-4-n-propoxyphenyl)-3[2H]pyridazinethione]
EC50 [4]: 3.09 µM | [EC40 pot.] left atrium / [EC50] trachea [4]: 324 | [EC50] theophylline / [EC50] substance [4]: 43.7 | EC40 [5]: > 1000 µM | Doubling of the latency period ([6]; 100 μmol/kg p.o., 30 min): 6 N of 10 animals | Tripling of the latency period ([6]; 100 μmol/kg p.o., 30 min, figure in parentheses): 6 N of 10 animals | protective effect compared with theophylline ([6]; result in words): greater protective effect

Cn1c(=O)c2[nH]cnc2n(C)c1=O.NCCN [Theophylline-ethylenediamine, theophylline-ethylenediamine, reference compound]
Percentage change in dP/dtmax ([3]; 3 μmol/kg i.v., 3 min): 8% | Percentage change in dP/dtmax ([3]; 3 μmol/kg i.v., 10 min): 2% | Percentage change in dP/dtmax ([3]; 3 μmol/kg i.v., 30 min): 2% | Percentage change in dP/dtmax ([3]; 3 μmol/kg i.v., 60 min): 1% | Percentage change in dP/dtmax ([3]; 10 μmol/kg i.v., 3 min): 62% | Percentage change in dP/dtmax ([3]; 10 μmol/kg i.v., 10 min): 30% | Percentage change in dP/dtmax ([3]; 10 μmol/kg i.v., 30 min): 22% | Percentage change in dP/dtmax ([3]; 10 μmol/kg i.v., 60 min): 26%

CCOc1cc(-c2ccc(=S)[nH]n2)ccc1OC [compound 14]
EC50 [4]: 1.41 µM | [EC40 pot.] left atrium / [EC50] trachea [4]: 1.5 | [EC50] theophylline / [EC50] substance [4]: 95.5 | [EC40 pot.] theophylline / [EC40 pot.] substance [5]: 200 | EC40 [5]: 2.09 µM

COc1ccc(-c2ccc(=S)[nH]n2)cc1OC(C)C [compound 17]
EC50 [4]: 7.24 µM | [EC40 pot.] left atrium / [EC50] trachea [4]: 0.4 | [EC50] theophylline / [EC50] substance [4]: 18.6 | [EC40 pot.] theophylline / [EC40 pot.] substance [5]: 151 | EC40 [5]: 2.75 µM

COc1ccc(-c2ccc(=S)[nH]n2)cc1OCC(C)C [compound 18]
EC50 [4]: 4.07 µM | [EC40 pot.] left atrium / [EC50] trachea [4]: 0.6 | [EC50] theophylline / [EC50] substance [4]: 33.1 | [EC40 pot.] theophylline / [EC40 pot.] substance [5]: 166 | EC40 [5]: 1.58 µM
